Results published in PubChem BioAssay AID2060506 (Molecular Pharmacology Branch, DTP, NCI, 2025).
pIC50: −log10 of the molar value.

System: 598228-144-R-J1-PDC complex spheroid viability
Test: Anticancer human tumor 598228-144-R-J1-PDC patient-derived serous endometrial adenocarcinoma cell line growth inhibition [GQUAD]
Details: for pIC50: curve of first compound; for viability, T/C: stronger effect = lower value
Outline: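 Tumor cells were grown as complex spheroids with HUVEC endothelial cells and mesenchymal stem cells as stroma. G-quadruplex stabilizers were combined with targeted agents over half-log dilutions from near the clinical Cmax, or from 10 microM.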

[1] = second compound 0.0316 µM, first compound 0.0316 µM
[2] = second compound 0.0316 µM, first compound 0.316 µM
[3] = second compound 0.1 µM, first compound 0.0316 µM
[4] = second compound 0.1 µM, first compound 0.316 µM
[5] = second compound 0.316 µM, first compound 0.0316 µM
[6] = second compound 0.316 µM, first compound 0.316 µM
[7] = second compound 1 µM, first compound 0.0316 µM
[8] = second compound 1 µM, first compound 0.316 µM
[9] = second compound 3.16 µM, first compound 0.0316 µM
[10] = second compound 3.16 µM, first compound 0.316 µM
[11] = second compound 10 µM, first compound 0.0316 µM
[12] = second compound 10 µM, first compound 0.316 µM
[13] = second compound 0.0316 µM, first compound 0.1 µM
[14] = second compound 0.0316 µM, first compound 1 µM
[15] = second compound 0.0316 µM, first compound 3.16 µM
[16] = second compound 0.0316 µM, first compound 10 µM
[17] = second compound 0.1 µM, first compound 0.1 µM
[18] = second compound 0.1 µM, first compound 1 µM
[19] = second compound 0.1 µM, first compound 3.16 µM
[20] = second compound 0.1 µM, first compound 10 µM
[21] = second compound 0.316 µM, first compound 0.1 µM
[22] = second compound 0.316 µM, first compound 1 µM
[23] = second compound 0.316 µM, first compound 3.16 µM
[24] = second compound 0.316 µM, first compound 10 µM
[25] = second compound 1 µM, first compound 0.1 µM
[26] = second compound 1 µM, first compound 1 µM
[27] = second compound 1 µM, first compound 3.16 µM
[28] = second compound 1 µM, first compound 10 µM
[29] = second compound 3.16 µM, first compound 0.1 µM
[30] = second compound 3.16 µM, first compound 1 µM
[31] = second compound 3.16 µM, first compound 3.16 µM
[32] = second compound 3.16 µM, first compound 10 µM
[33] = second compound 10 µM, first compound 0.1 µM
[34] = second compound 10 µM, first compound 1 µM
[35] = second compound 10 µM, first compound 3.16 µM
[36] = second compound 10 µM, first compound 10 µM
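Further: spheroids exposed to the agents for one week before reading.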
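Wherever viability, T/C is given: percent of vehicle DMSO control viability so 100% = untreated growth.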

In the case of `CC[C@@]1(O)C(=O)OCc2c1cc1n(c2=O)Cc2cc3c(CN(C)C)c(O)ccc3nc2-1` + CN(C)c1ccc(Nc2c3ccc(NC(=O)CCN4CCCC4)cc3nc3cc(NC(=O)CCN4CCCC4)ccc23)cc1, the pIC50 (second compound 0.0316 µM) was under 6.50, the pIC50 (second compound 0.1 µM) was under 6.50 and the pIC50 (second compound 0.316 µM) was 7.01. It also gave a pIC50 (second compound 1 µM) of 7.06, a pIC50 (second compound 3.16 µM) of 6.65 and a pIC50 (second compound 10 µM) of 7.12. The viability, T/C (second compound 0.0316 µM, first compound 0.000999 µM) was 84.4%, the viability, T/C (second compound 0.0316 µM, first compound 0.00316 µM) was 84.2% and the viability, T/C (second compound 0.0316 µM, first compound 0.00999 µM) was 105%. For the same compound, the viability, T/C [1] was 91.4%, the viability, T/C (second compound 0.0316 µM, first compound 0.0999 µM) was 54.6% and the viability, T/C [2] was 59.4%. For the same compound, the viability, T/C (second compound 0.1 µM, first compound 0.000999 µM) was 99.4%, the viability, T/C (second compound 0.1 µM, first compound 0.00316 µM) was 95.9% and the viability, T/C (second compound 0.1 µM, first compound 0.00999 µM) was 95.3%. The viability, T/C [3] was 75.5%, the viability, T/C (second compound 0.1 µM, first compound 0.0999 µM) was 56.6% and the viability, T/C [4] was 56.5%. It also gave a viability, T/C (second compound 0.316 µM, first compound 0.000999 µM) of 95.8%, a viability, T/C (second compound 0.316 µM, first compound 0.00316 µM) of 104% and a viability, T/C (second compound 0.316 µM, first compound 0.00999 µM) of 101%. The viability, T/C [5] was 72.8%, the viability, T/C (second compound 0.316 µM, first compound 0.0999 µM) was 48.5% and the viability, T/C [6] was 50.5%. For the same compound, the viability, T/C (second compound 1 µM, first compound 0.000999 µM) was 84.3%, the viability, T/C (second compound 1 µM, first compound 0.00316 µM) was 91.8% and the viability, T/C (second compound 1 µM, first compound 0.00999 µM) was 92%. The viability, T/C [7] was 102%, the viability, T/C (second compound 1 µM, first compound 0.0999 µM) was 42.6% and the viability, T/C [8] was 45.8%. The viability, T/C (second compound 3.16 µM, first compound 0.000999 µM) was 97.8%, the viability, T/C (second compound 3.16 µM, first compound 0.00316 µM) was 89.9% and the viability, T/C (second compound 3.16 µM, first compound 0.00999 µM) was 86.4%. The viability, T/C [9] was 94.6%, the viability, T/C (second compound 3.16 µM, first compound 0.0999 µM) was 57.5% and the viability, T/C [10] was 46.8%. The viability, T/C (second compound 10 µM, first compound 0.000999 µM) was 66.9%, the viability, T/C (second compound 10 µM, first compound 0.00316 µM) was 90.9% and the viability, T/C (second compound 10 µM, first compound 0.00999 µM) was 81.5%. The viability, T/C [11] was 62.6%, the viability, T/C (second compound 10 µM, first compound 0.0999 µM) was 48.5% and the viability, T/C [12] was 42.3%.
With `COc1cc(C2c3cc4c(cc3C(OC3OC5COC(C)OC5C(O)C3O)C3COC(=O)C23)OCO4)cc(OC)c1O` (stereo unspecified) + Cc1[nH]c2ccc(F)cc2c1-c1nc2c3cccnc3c3ncccc3c2[nH]1 the pIC50 (second compound 0.0316 µM) was under 5.00, the pIC50 (second compound 0.1 µM) was under 5.00 and the pIC50 (second compound 0.316 µM) was under 5.00. For the same compound, the pIC50 (second compound 1 µM) was 5.38, the pIC50 (second compound 3.16 µM) was over 7.50 and the pIC50 (second compound 10 µM) was 5.35. For the same compound, the viability, T/C [1] was 91.8%, the viability, T/C [13] was 85.6% and the viability, T/C [2] was 87%. For the same compound, the viability, T/C [14] was 71%, the viability, T/C [15] was 60.4% and the viability, T/C [16] was 51.3%. It also gave a viability, T/C [3] of 92.9%, a viability, T/C [17] of 77.5% and a viability, T/C [4] of 66.2%. For the same compound, the viability, T/C [18] was 71.8%, the viability, T/C [19] was 68.7% and the viability, T/C [20] was 48.6%. For the same compound, the viability, T/C [5] was 119%, the viability, T/C [21] was 72% and the viability, T/C [6] was 76.7%. It also gave a viability, T/C [22] of 66%, a viability, T/C [23] of 66% and a viability, T/C [24] of 47.6%. For the same compound, the viability, T/C [7] was 62.6%, the viability, T/C [25] was 59.5% and the viability, T/C [8] was 58.5%. The viability, T/C [26] was 44.7%, the viability, T/C [27] was 62% and the viability, T/C [28] was 43.1%. For the same compound, the viability, T/C [9] was 43.2%, the viability, T/C [29] was 42% and the viability, T/C [10] was 39.3%. It also gave a viability, T/C [30] of 46.2%, a viability, T/C [31] of 38.2% and a viability, T/C [32] of 43.5%. For the same compound, the viability, T/C [11] was 54.6%, the viability, T/C [33] was 62.9% and the viability, T/C [12] was 55.7%. For the same compound, the viability, T/C [34] was 47.9%, the viability, T/C [35] was 61.9% and the viability, T/C [36] was 34.9%.
`CC1COCCN1c1cc(C2(O)CC3CCC(C2)O3)c2cnn(-c3ccn[nH]3)c2n1` (stereo unspecified) + Cc1cnc(CNC(=O)c2c(=O)c3ccc(N4CCCN(C)CC4)nc3n3c2sc2ccccc23)cn1 showed a pIC50 (second compound 0.0316 µM) of 7.37, a pIC50 (second compound 0.1 µM) of over 7.50 and a pIC50 (second compound 0.316 µM) of over 7.50. The pIC50 (second compound 1 µM) was over 7.50, the pIC50 (second compound 3.16 µM) was over 7.50 and the pIC50 (second compound 10 µM) was over 7.50. The viability, T/C [1] was 59.9%, the viability, T/C [13] was 31.8% and the viability, T/C [2] was 35.8%. For the same compound, the viability, T/C [14] was 36.6%, the viability, T/C [15] was 22.5% and the viability, T/C [16] was 9.67%. It also gave a viability, T/C [3] of 46%, a viability, T/C [17] of 38% and a viability, T/C [4] of 32.8%. The viability, T/C [18] was 34.7%, the viability, T/C [19] was 19.8% and the viability, T/C [20] was 9.84%. For the same compound, the viability, T/C [5] was 41%, the viability, T/C [21] was 39.7% and the viability, T/C [6] was 33%. For the same compound, the viability, T/C [22] was 36.4%, the viability, T/C [23] was 20.9% and the viability, T/C [24] was 7.21%. For the same compound, the viability, T/C [7] was 44.6%, the viability, T/C [25] was 41.9% and the viability, T/C [8] was 35.9%. It also gave a viability, T/C [26] of 24%, a viability, T/C [27] of 12.7% and a viability, T/C [28] of 4.57%. The viability, T/C [9] was 34.8%, the viability, T/C [29] was 37.9% and the viability, T/C [10] was 25.5%. It also gave a viability, T/C [30] of 7.29%, a viability, T/C [31] of 0.25% and a viability, T/C [32] of 0.64%. For the same compound, the viability, T/C [11] was 14.6%, the viability, T/C [33] was 0.4% and the viability, T/C [12] was 0.37%. It also gave a viability, T/C [34] of 0.29%, a viability, T/C [35] of 0.34% and a viability, T/C [36] of 0.24%.
